Test results published in patent US7745390B2, “Antimicrobial peptides” (priority 2005, dated 2010).
Square brackets hold non-standard residues; d marks the D form. Ends that are not written are not given here. Peptide text beside a SMILES is read from it.

Legend:
B. cereus = assay type: cell-based; details: pH 7.2
Procedure: (§1) The experiments described above characterizing the activity of granulysin peptides G1-G18 relied on counting bacterial colonies on plates. This assay is quite labor intensive and would not allow evaluation of many different compounds on a number of different microbes. Therefore, we optimized an assay in which the entire procedure could be completed in a single microtiter well. Briefly, peptides are diluted in 10 mM phosphate buffer, pH 7.2 supplemented with 0.03% LB (J. Sambrook, D. W. Russell, Molecular Cloning: A Laboratory Manual (Cold Spring Harbor Laboratory Press, New York, ed. 3, 2001) pg. A2.2, Retrieved from http://openwetware.org/wiki/LB) and 25 μl is added to microtiter wells. Bacteria (25 μl) are added (˜5×10^6 colony forming units/ml) in the same buffer. After a 3-hour incubation at 37° C., 150 μl of LB is added and the plates are incubated overnight. The OD at 600 nm is read on an ELISA plate reader. The minimum inhibitory concentration (MIC) is the lowest concentration allowing no bacterial growth. The IC50 is the concentration of peptide that results in 50% growth compared to the medium.
(§2) We now describe additional peptides and their activity. The peptides have been designed, synthesized, and have been tested for lysis of E. coli and S. typhimurium (gram negative bacteria), B. cereus (gram positive bacterium). Results are shown in Table 2 along with the amino acid sequence of the peptide. Changes from the naturally occurring sequence are underlined. In general, the desired result is lysis of bacteria at low concentration (<1 μM).
(§3) In Table 2, Columns 2-7 are the MIC and IC50 (concentration required for 50% inhibition of growth) for each organism (E. coli, Salmonella, and B. cereus). The MIC (minimum inhibitory concentration) was determined as described above, in a multiwell plate assay. […] L-isomer amino acids are designated by capital letters while D-isomer amino acids are designated by lower case letters.

E. coli DH5a = assay type: cell-based; details: DH5a, pH 7.2
Procedure: as §1, §2, §3

Salmonella = assay type: cell-based, S. typhimurium; details: pH 7.2
Procedure: as §1, §2, §3

Compound	B. cereus MIC (B. cereus) [µM]	IC50 (B. cereus) [nM]	E. coli DH5a MIC (E. coli DH5a) [µM]	IC50 (E. coli DH5a) [nM]	IC50 (Salmonella) [nM]	Salmonella MIC (Salmonella) [µM]
QRSVSRAATRVSRTGRSRWRDVSRRFMRR [Peptide G8.4]	0.7	450	0.7	450	210	0.35
RDVSRRFMRRRDVSRRFMRR [Peptide G11.39]	0.7	450	0.7	220	1700	2.75
CSCC[C@@H](NC(=O)[C@H]1CCCN1C(=O)[C@@H](CCCCN)NC(=O)[C@@H](CCCCN)NC(=O)[C@@H](CO)NC(=O)[C@H](NC(=O)[C@@H](CCCCN)NC(=O)[C@@H](CCCCN)NC(=O)[C@@H](CCCCN)NC(=O)[C@@H](CCCCN)NC(=O)[C@@H](CCCCN)NC(=O)[C@@H](CCCCN)NC(=O)[C@H](N)CCCCN)C(C)C)C(=O)N[C@H](CCCCN)C(=O)N[C@H](CCCCN)C(=O)N[C@H](Cc1ccc(O)cc1)C(=O)N[C@H](CCCCN)C(=O)N[C@H](CO)C(=O)N[C@H](CCCCN)C(=O)N[C@H](CCCCN)C(=O)N1CCC[C@@H]1C(=O)N[C@H](CCCCN)C(=O)N[C@H](CCCCN)C(=O)N[C@H](CC(C)C)C(=O)N[C@@H](C(=O)O)C(C)C [Peptide G12.29, kkkkkkkvskkpmkkykskkpkklv] (H-[dK][dK][dK][dK][dK][dK][dK][dV][dS][dK][dK][dP][dM][dK][dK][dY][dK][dS][dK][dK][dP][dK][dK][dL][dV]-OH; N-terminus and C-terminus assumed)	0.35	210	0.15	100	280	1.15
KKVSKKFMKK [Peptide G11.8, KKVSKKFMKK]	>10	> 10000	>10	> 10000	> 10000	>10
CSCC[C@H](NC(=O)[C@H](Cc1ccccc1)NC(=O)[C@H](CCCNC(=N)N)NC(=O)[C@H](CCCNC(=N)N)NC(=O)[C@H](CO)NC(=O)[C@@H](NC(=O)[C@@H](CC(=O)O)NC(=O)[C@@H](CCCNC(=N)N)NC(=O)[C@H](Cc1c[nH]c2ccccc12)NC(=O)[C@H](CCCNC(=N)N)NC(=O)[C@H](CO)NC(=O)[C@H](CCCNC(=N)N)NC(=O)CN)C(C)C)C(=O)N[C@@H](CCCNC(=N)N)C(=O)N[C@@H](CCCNC(=N)N)C(=O)O [Peptide G14.10, GRSRWrdVSRRFMRR] (H-GRSRW[dR][dD]VSRRFMRR-OH; N-terminus and C-terminus assumed)	2.8	1750	1.25	450	890	1.4
RRVSRRFMRRYRSRRIRRLV [Peptide G12.8]	0.71	450	0.7	450	410	0.65
QRSVSNAATRVSRTGRSRWRDVSRRFMRR [Peptide G8.3]	1.25	700	0.7	550	450	0.67
KKVSKKFMKKYQSKVIQGLV [Peptide G12.9]	5.6	3510	1.35	490	850	1.4
QRAVARAATRVARTGRARWRDVARNFMRR [Peptide G8.5]	1.4	880	1.4	880	420	0.7
VHKRRVSRRFMRRLGH [Peptide G11.42, VHKRRVSRRFMRRLGH]	0.4	110	0.35	210	1350	2.8
QRAVARAATRVARTGRARW [Peptide G13.6, QRAVARAATRVARTGRARW]	>10	7700	2.8	1650	7480	>10
